“And” between values parts separate entries of the source, which are not always exact repeats. Equal entries are not always repeated.

For the test, the system named is BDF1 mice, Adenocarcinoma 755 s.c., tumor weight T/C. The test can be described thus: NCI In Vivo Anticancer Drug Screen. Data for tumor model Adenocarcinoma 755 (subcutaneous) in B6D2F1 (BDF1) mice. The following applies: endpoint: mean tumor weight, higher = larger tumour. An outline of the steps:
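Values express treated (T) relative to vehicle-dosed control (C) animals, based on survival or tumour size measured after compound treatment of mice bearing a transplanted tumour.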

The mark [1] stands for this setting: dose: 8.0 mg/kg/injection, schedule: Q01DX011 (ip), vehicle: carboxymethylcellulose (CMC).
Setting [2] is: dose: 12.5 mg/kg/injection, schedule: Q01DX011 (ip), vehicle: methylcellulose (MC).
Where [3] appears, read: dose: 25.0 mg/kg/injection, schedule: Q01DX011 (ip), vehicle: methylcellulose (MC).

Regarding `C=CC(CN1CC1)OC(C)=O` (configuration not stated), the T/C is, setting by setting: (dose: 0.25 mg/kg/injection, schedule: Q01DX011 (sc), vehicle: saline) 97 % of control; (dose: 0.5 mg/kg/injection, schedule: Q01DX010 (oral), vehicle: saline) 28 % of control; (dose: 0.5 mg/kg/injection, schedule: Q01DX011 (ip), vehicle: methylcellulose (MC)) 62 % of control; (dose: 0.5 mg/kg/injection, schedule: Q01DX011 (sc), vehicle: saline) 94 % of control; (dose: 1.0 mg/kg/injection, schedule: Q01DX006 (iv), vehicle: saline) 63 % of control; (dose: 1.0 mg/kg/injection, schedule: Q01DX010 (oral), vehicle: saline) 21 % of control. Further, the T/C is, setting by setting: (dose: 1.0 mg/kg/injection, schedule: Q01DX011 (ip), vehicle: methylcellulose (MC)) 49 % of control; (dose: 1.0 mg/kg/injection, schedule: Q01DX011 (sc), vehicle: saline) 83 % of control; (dose: 1.0 mg/kg/injection, schedule: Q02DX004 (im), vehicle: saline) 93 % of control; (dose: 1.24 mg/kg/injection, schedule: Q01DX011 (ip), vehicle: carboxymethylcellulose (CMC)) 202 % of control; (dose: 1.6 mg/kg/injection, schedule: Q01DX011 (ip), vehicle: carboxymethylcellulose (CMC)) 36 % of control; (dose: 1.69 mg/kg/injection, schedule: Q01DX011 (ip), vehicle: carboxymethylcellulose (CMC)) 81 % of control. Moreover, the T/C is 76 % of control (dose: 1.81 mg/kg/injection, schedule: Q01DX011 (ip), vehicle: carboxymethylcellulose (CMC)); 66 % of control (dose: 2.0 mg/kg/injection, schedule: Q01DX006 (iv), vehicle: saline); 9 % of control (dose: 2.0 mg/kg/injection, schedule: Q01DX010 (oral), vehicle: saline); 47 % of control (dose: 2.0 mg/kg/injection, schedule: Q01DX011 (sc), vehicle: saline); 68 % of control (dose: 2.0 mg/kg/injection, schedule: Q02DX004 (im), vehicle: saline); 79 % of control (dose: 2.48 mg/kg/injection, schedule: Q01DX011 (ip), vehicle: carboxymethylcellulose (CMC)). Further, the T/C is, setting by setting: (dose: 2.7 mg/kg/injection, schedule: Q01DX011 (ip), vehicle: carboxymethylcellulose (CMC)) 33 % of control; (dose: 3.2 mg/kg/injection, schedule: Q01DX011 (ip), vehicle: carboxymethylcellulose (CMC)) 77 % of control; (dose: 3.25 mg/kg/injection, schedule: Q01DX011 (oral), vehicle: saline) 50 % of control; (dose: 3.63 mg/kg/injection, schedule: Q01DX011 (ip), vehicle: carboxymethylcellulose (CMC)) 51 % of control; (dose: 3.96 mg/kg/injection, schedule: Q01DX011 (ip), vehicle: carboxymethylcellulose (CMC)) 29 % of control and 45 % of control; (dose: 4.0 mg/kg/injection, schedule: Q01DX006 (iv), vehicle: saline) 38 % of control. Besides, the T/C (dose: 4.0 mg/kg/injection, schedule: Q01DX010 (oral), vehicle: saline) was 7 % of control; the T/C (dose: 4.0 mg/kg/injection, schedule: Q01DX011 (sc), vehicle: saline) was 19 % of control and 40 % of control; the T/C (dose: 4.0 mg/kg/injection, schedule: Q02DX004 (im), vehicle: saline) is 57 % of control; the T/C (dose: 6.0 mg/kg/injection, schedule: Q01DX011 (ip), vehicle: carboxymethylcellulose (CMC)) is 26 % of control; the T/C (dose: 6.4 mg/kg/injection, schedule: Q01DX011 (ip), vehicle: carboxymethylcellulose (CMC)) was 26 % of control; the T/C (dose: 6.6 mg/kg/injection, schedule: Q01DX011 (ip), vehicle: carboxymethylcellulose (CMC)) was 7 % of control and 19 % of control. The T/C runs as follows: (dose: 6.75 mg/kg/injection, schedule: Q01DX011 (ip), vehicle: carboxymethylcellulose (CMC)) 21 % of control; (dose: 7.25 mg/kg/injection, schedule: Q01DX011 (ip), vehicle: carboxymethylcellulose (CMC)) 10 % of control; (dose: 7.5 mg/kg/injection, schedule: Q01DX011 (ip), vehicle: saline) 2 % of control and 8 % of control; (dose: 7.5 mg/kg/injection, schedule: Q01DX011 (oral), vehicle: saline) 19 % of control; (dose: 8.0 mg/kg/injection, schedule: Q01DX006 (iv), vehicle: saline) 16 % of control; under setting [1], 14 % of control. The T/C is 9 % of control (dose: 8.0 mg/kg/injection, schedule: Q01DX011 (sc), vehicle: saline); 27 % of control (dose: 8.0 mg/kg/injection, schedule: Q02DX004 (im), vehicle: saline); 8 % of control and 11 % of control (dose: 9.9 mg/kg/injection, schedule: Q01DX011 (ip), vehicle: carboxymethylcellulose (CMC)); 3 % of control (dose: 12.0 mg/kg/injection, schedule: Q01DX011 (ip), vehicle: carboxymethylcellulose (CMC)); 1 % of control (dose: 15.0 mg/kg/injection, schedule: Q01DX011 (ip), vehicle: saline); 51 % of control (dose: 62.5 micrograms/kg/injection, schedule: Q01DX011 (oral), vehicle: saline). Besides, the T/C is 37 % of control (dose: 125.0 micrograms/kg/injection, schedule: Q01DX011 (oral), vehicle: saline); 72 % of control (dose: 250.0 micrograms/kg/injection, schedule: Q01DX011 (oral), vehicle: saline); 86 % of control (dose: 500.0 micrograms/kg/injection, schedule: Q01DX011 (oral), vehicle: saline).

As to `FC(F)(F)c1nc(Cl)nc2c1ncn2Cc1ccccc1`, the T/C (dose: 30.0 mg/kg/injection, schedule: Q01DX011 (ip), vehicle: carboxymethylcellulose (CMC)) was 56 % of control; the T/C (dose: 60.0 mg/kg/injection, schedule: Q01DX011 (ip), vehicle: carboxymethylcellulose (CMC)) was 97 % of control; the T/C (dose: 120.0 mg/kg/injection, schedule: Q01DX011 (ip), vehicle: carboxymethylcellulose (CMC)) was 97 % of control.

Take `CC(C)n1cc2c(N)ncnc2n1`: the T/C by setting is: under setting [2], 55 % of control; (dose: 12.5 mg/kg/injection, schedule: Q01DX011 (ip), vehicle: saline) 74 % of control; under setting [3], 18 % of control; (dose: 25.0 mg/kg/injection, schedule: Q01DX011 (ip), vehicle: saline) 14 % of control.

Take `CCCCNc1ncnc2c1cnn2C`: the T/C is, setting by setting: (dose: 4.0 mg/kg/injection, schedule: Q01DX011 (ip), vehicle: carboxymethylcellulose (CMC)) 96 % of control; under setting [1], 84 % of control; (dose: 16.0 mg/kg/injection, schedule: Q01DX011 (ip), vehicle: carboxymethylcellulose (CMC)) 52 % of control; (dose: 31.25 mg/kg/injection, schedule: Q01DX011 (ip), vehicle: carboxymethylcellulose (CMC)) 30 % of control; (dose: 32.0 mg/kg/injection, schedule: Q01DX011 (ip), vehicle: carboxymethylcellulose (CMC)) 20 % of control.

Take `Nc1nc(SCc2ccccc2F)c2ncn(C3OC(CO)C(O)C3O)c2n1` (configuration not stated): the T/C (dose: 1.5 mg/kg/injection, schedule: Q01DX011 (ip), vehicle: methylcellulose (MC)) was 106 % of control; the T/C (dose: 3.1 mg/kg/injection, schedule: Q01DX011 (ip), vehicle: methylcellulose (MC)) was 41 % of control; the T/C (dose: 6.2 mg/kg/injection, schedule: Q01DX011 (ip), vehicle: methylcellulose (MC)) was 7 % of control and 14 % of control; the T/C under setting [2] was 1 % of control; the T/C under setting [3] is 5 % of control.

For the compound `CCCCn1cnc2c([N+](C)(C)C)ncnc21`, the T/C is, setting by setting: (dose: 3.75 mg/kg/injection, schedule: Q01DX011 (ip), vehicle: carboxymethylcellulose (CMC)) 66 % of control; (dose: 15.0 mg/kg/injection, schedule: Q01DX011 (ip), vehicle: carboxymethylcellulose (CMC)) 33 % of control and 38 % of control.

For `CCC1/C=C/C=C/CC(C)C(O)C(C)(O)C(=O)C(C)C(O)C(C)C(=O)C(C)C(O)C(C)/C=C/C(=O)OC2C(C)C(CC1)OC1(OC(CC(C)O)C(C)CC1=O)C2C` (configuration not stated) (tested in a mixture with another compound), the T/C by setting is: (dose: 1.0 mg/kg/injection, schedule: Q01DX011 (ip), vehicle: saline) 68 % of control; (dose: 2.0 mg/kg/injection, schedule: Q01DX011 (ip), vehicle: saline) 87 % of control; (dose: 4.0 mg/kg/injection, schedule: Q01DX011 (ip), vehicle: saline) 61 % of control.
